Where two headings read alike, the source gives them in different places.
What was measured:
Thromboxane Synthetase [1] = details: cited from earlier work
Thromboxane Biosynthesis = test: Inhibition of thromboxane biosynthesis; type: biochemical; parameters: % Inhibition of Thromboxane Biosynthesis: unit of the concentration uncertain; details: for % INHIBITION (Inhibition of Thromboxane Biosynthesis): concentration of 100 mg/ml (Table 2)
Source text: A comparison of the inhibition of thromboxane biosynthesis between imidazole and Burimamide was made.
A number of structurally related compounds including other H2 blockers were compared for inhibition of thromboxane activity.

[2] = test system: histamineinduced gastric acid secretion; details: cited from earlier work
H2-receptor = details: cited from earlier work
Thromboxane Synthetase [3] = details: human platelets; cited from earlier work
[4] = concentration 0.5 (unit uncertain)
[5] = concentration 1 (unit uncertain)
[6] = concentration 2 (unit uncertain)
[7] = concentration 5 (unit uncertain)
[8] = concentration 10 (unit uncertain)
[9] = concentration 20 (unit uncertain)
[10] = concentration 50 (unit uncertain)

In the case of `Cn1ccnc1` [1-methyl imidazole], the “inhibition of thromboxane biosynthesis, in words” value (Thromboxane Synthetase [1]) is given as “potent inhibitor of thromboxane biosynthesis”.

With `NCCc1ccccn1` [2-(2-pyridyl) Ethylamine] the “% INHIBITION (Inhibition of Thromboxane Biosynthesis)” value (Thromboxane Biosynthesis) was 20%.

For `NCCc1nccs1` [2-(2-thiazolyl) Ethylamine], the “% INHIBITION (Inhibition of Thromboxane Biosynthesis)” value (Thromboxane Biosynthesis) was 19%.

In the case of `Cc1[nH]cnc1CCN` [4-Methylhistamine], the “% INHIBITION (Inhibition of Thromboxane Biosynthesis)” value (Thromboxane Biosynthesis) is reported as 0%.

In the case of `CNC(=S)NCCCCc1c[nH]cn1` [Burimamide, N-methyl-N'-[4-(imidazole-4-yl)butyl] thiourea], the “histamine-induced gastric acid secretion, in words” value [2] is given as “inhibit histamineinduced gastric acid secretion”, the “pharmacologic activity at H2-receptor, in words” value (H2-receptor) is given as “H2 -receptor blocker” and the “thromboxane biosynthesis inhibition, in words” value (Thromboxane Biosynthesis) is given as “potent, selective blocker of thromboxane biosynthesis”. For the same compound, the “% Inhibition of Thromboxane Biosynthesis” value (Thromboxane Biosynthesis; concentration 100 mg/ml (Table 1)) was 98%, the “% Inhibition of Thromboxane Biosynthesis” value (Thromboxane Biosynthesis; [4]) was 15% and the “% Inhibition of Thromboxane Biosynthesis” value (Thromboxane Biosynthesis; [5]) was 21%. For the same compound, the “% Inhibition of Thromboxane Biosynthesis” value (Thromboxane Biosynthesis; [6]) was 36%, the “% Inhibition of Thromboxane Biosynthesis” value (Thromboxane Biosynthesis; [7]) was 47% and the “% Inhibition of Thromboxane Biosynthesis” value (Thromboxane Biosynthesis; [8]) was 58%. The “% Inhibition of Thromboxane Biosynthesis” value (Thromboxane Biosynthesis; [9]) was 73%, the “% Inhibition of Thromboxane Biosynthesis” value (Thromboxane Biosynthesis; [10]) was 86% and the “% INHIBITION (Inhibition of Thromboxane Biosynthesis)” value (Thromboxane Biosynthesis) was 100%.

In the case of `CNC(=NC#N)NCCSCc1[nH]cnc1C` [Cimetidine], the “thromboxane biosynthesis inhibition, in words” value (Thromboxane Biosynthesis) is reported as “only minor thromboxane inhibitory activity” and the “% INHIBITION (Inhibition of Thromboxane Biosynthesis)” value (Thromboxane Biosynthesis) is reported as 19%.

In the case of `Clc1cccc(Cl)c1NC1=NCCN1` [Clonidine], the “% INHIBITION (Inhibition of Thromboxane Biosynthesis)” value (Thromboxane Biosynthesis) is reported as 0%.

For `CN(C)CCCSC(=N)N` [Dimaprit], the “% INHIBITION (Inhibition of Thromboxane Biosynthesis)” value (Thromboxane Biosynthesis) was 35%.

In the case of `NCCc1c[nH]cn1` [Histamine], the “% INHIBITION (Inhibition of Thromboxane Biosynthesis)” value (Thromboxane Biosynthesis) is reported as 17%.

In the case of `c1c[nH]cn1` [Imidazole], the “inhibition of thromboxane biosynthesis, in words” value (Thromboxane Synthetase [3]) is listed as “selective inhibitor of thromboxane biosynthesis”, the “thromboxane biosynthesis inhibition, in words” value (Thromboxane Biosynthesis) is listed as “only compound comparable in inhibition of thromboxane biosynthesis” and the “% Inhibition of Thromboxane Biosynthesis” value (Thromboxane Biosynthesis; [4]) is listed as 0%. The “% Inhibition of Thromboxane Biosynthesis” value (Thromboxane Biosynthesis; [5]) was 25%, the “% Inhibition of Thromboxane Biosynthesis” value (Thromboxane Biosynthesis; [6]) was 53% and the “% Inhibition of Thromboxane Biosynthesis” value (Thromboxane Biosynthesis; [7]) was 68%. For the same compound, the “% Inhibition of Thromboxane Biosynthesis” value (Thromboxane Biosynthesis; [8]) was 81%, the “% Inhibition of Thromboxane Biosynthesis” value (Thromboxane Biosynthesis; [9]) was 89% and the “% Inhibition of Thromboxane Biosynthesis” value (Thromboxane Biosynthesis; [10]) was 88%.

In the case of `N[C@@H](Cc1c[nH]cn1)C(=O)O` [L-Histidine], the “% INHIBITION (Inhibition of Thromboxane Biosynthesis)” value (Thromboxane Biosynthesis) is reported as 17%.

In the case of `c1ccc([C@H]2CN3CCSC3=N2)cc1` [Levamisole], the “% INHIBITION (Inhibition of Thromboxane Biosynthesis)” value (Thromboxane Biosynthesis) is reported as 6%.

For `CNC(=S)NCCSCc1[nH]cnc1C` [Metiamide], the “thromboxane biosynthesis inhibition, in words” value (Thromboxane Biosynthesis) was “only minor thromboxane inhibitory activity” and the “% INHIBITION (Inhibition of Thromboxane Biosynthesis)” value (Thromboxane Biosynthesis) was 33%.

For `CC(=O)NCCc1c[nH]cn1` [N-acetyl Histamine], the “% INHIBITION (Inhibition of Thromboxane Biosynthesis)” value (Thromboxane Biosynthesis) was 26%.

For `CC(=O)N[C@@H](Cc1c[nH]cn1)C(=O)O` [N-acetyl Histidine], the “% INHIBITION (Inhibition of Thromboxane Biosynthesis)” value (Thromboxane Biosynthesis) was 0%.

Reference: US4228176A, “Thromboxane inhibition with burimamide” (Nelson Research & Development Company, priority 1979, dated 1980)
